Experimental data as given in ChEMBL document CHEMBL3885861, “Open TG-GATES”.

Species on record: Rattus norvegicus
Assay: Open TG-GATES - Regimen: Single
Format: toxicity, organism-based, Sprague-Dawley
Set-up: regimen Single, gender Male, age 6 weeks
Conditions: in vivo, po, 250 mg/kg, route gavage, dose level Middle; for APTT / Bas / Eos / Fbg / Hb / Ht / Lym / MCH / MCHC / MCV / Mono / Neu / PT / Plat / RBC / Ret / WBC: tissue Blood; for KIDNEY_L / KIDNEY_R / KIDNEY_TOTAL: tissue Kidney; for LIVER: tissue Liver; for A/G / ALP / ALT / AST / BUN / CRE / Ca / Cl / DBIL / GLC / IP / K / LDH / Na / PL / RALB / TBIL / TC / TG / TP / gamma-GTP: tissue Plasma

## CN(C/C=C/C#CC(C)(C)C)Cc1cccc2ccccc12 [TERBINAFINE]
9 h
  TERMINAL_BW: 220.9 g
  APTT: 18.2 s
  Bas: 0.6%
  Eos: 1%
  Fbg: 211.6 mg/dL
  Hb: 12.8 g/dL
  Ht: 38.5%
  Lym: 77.8%
  MCH: 20.8 pg
  MCHC: 33.3%
  MCV: 62.3 fL
  Mono: 2.4%
  Neu: 18.2%
  PT: 12.5 s
  Plat: 114.8 x10_4/uL
  RBC: 618 x10_4/ul
  Ret: 6.3%
  WBC: 74.3 x10_2/uL
  KIDNEY_L: 1 g
  KIDNEY_R: 1 g
  KIDNEY_TOTAL: 2 g
  LIVER: 9.1 g
  A/G: 1.6
  ALP: 845 IU/L
  ALT: 31.4 IU/L
  AST: 67.6 IU/L
  BUN: 12 mg/dL
  CRE: 0.4 mg/dL
  Ca: 10.3 mg/dL
  Cl: 103.4 meq/L
  DBIL: 0.074 mg/dL
  GLC: 198.2 mg/dL
  IP: 10.8 mg/dL
  K: 4.1 meq/L
  LDH: 153 IU/L
  Na: 141.8 meq/L
  PL: 122 mg/dL
  RALB: 3.4 g/dL
  TBIL: 0.1 mg/dL
  TC: 64 mg/dL
  TG: 26.6 mg/dL
  TP: 5.5 g/dL
  gamma-GTP: 1.4 IU/L
24 h
  TERMINAL_BW: 237.1 g
  APTT: 18.5 s
  Bas: 0.6%
  Eos: 1%
  Fbg: 223.8 mg/dL
  Hb: 13.4 g/dL
  Ht: 39.8%
  Lym: 79.2%
  MCH: 21.4 pg
  MCHC: 33.8%
  MCV: 63.3 fL
  Mono: 3.2%
  Neu: 15.6%
  PT: 12 s
  Plat: 127.3 x10_4/uL
  RBC: 628.2 x10_4/ul
  Ret: 6.6%
  WBC: 91.5 x10_2/uL
  KIDNEY_L: 1.1 g
  KIDNEY_R: 1.1 g
  KIDNEY_TOTAL: 2.2 g
  LIVER: 11.9 g
  A/G: 1.6
  ALP: 1068.6 IU/L
  ALT: 46.4 IU/L
  AST: 84.6 IU/L
  BUN: 15.4 mg/dL
  CRE: 0.4 mg/dL
  Ca: 10.7 mg/dL
  Cl: 103.2 meq/L
  DBIL: 0.098 mg/dL
  GLC: 191.2 mg/dL
  IP: 8.6 mg/dL
  K: 3.9 meq/L
  LDH: 193.8 IU/L
  Na: 141.4 meq/L
  PL: 135 mg/dL
  RALB: 3.4 g/dL
  TBIL: 0.2 mg/dL
  TC: 72.4 mg/dL
  TG: 84 mg/dL
  TP: 5.5 g/dL
  gamma-GTP: 1.6 IU/L
